Experiments:
B16-mhgp100 tumors [1] = assay: Anti-tumor efficacy in B16 melanoma model, citrate vs potassium hydroxycitrate; format: in vivo, mice; conditions: T cells cultured in potassium hydroxycitrate or citrate; FIGS. 17A-17C
[2] = tested on: IFN-γ locus in CD8+ Pmel-1 cells; assay: ChIP-PCR of H3K9Ac deposition at the IFN-γ locus; format: cell-based, mouse; conditions: vs negative control; FIG. 2C
Experimental: Chromatin Immunoprecipitations were performed with validated antibodies from previous literatures (Gray et al., Immunity, 46(4): 596-608 (2017); Peng et al., Science, 354(6311): 481-484 (2016)) and protocols were followed according to manufacturing instructions provided by the CHIP-IT express shearing kit (Active Motif, Carlsbad, CA). Briefly, CD8+ Pmel-1 cells were fixed with formaldehyde for 7 minutes on a rocking platform and quenched with 1× of Glycine. Cells were pelleted with phenylmethylsulfonyl fluoride (PMSF) and protein inhibition cocktail and stored at −80 prior to cell lysis. Thawed cells were suspended in ice cold lysis buffer to obtain nuclei material. Nuclei material was sheared by incubating with enzymatic cocktail for 15 minutes at 37° C. Sheared chromatin with a total of 7.5 μg/sample was incubated with protein G magnetic beads with anti-H3K27Ac (Abcam Cat #ab4729), H3k9Ac (Abcam Cat #ab4441) (Abcam, Cambridge, UK) and anti IgG at 4° C. overnight. Magnetic beads were washed with buffers to remove unbound immune complexes and eluted with 150 μl of elution buffer. […] Concentration of the ChIP DNA was measured with high sensitive DNA assay protocol on tape station to normalize the DNA. Samples were sequenced on illumina Next seq system (Illumina, San Diego, CA) with 75 bp reads in single end mode with approximately 40M reads per sample. […]

Human CD8+ TILs = assay: CD62L expression of human CD8+ TILs during rapid expansion, FACS; format: cell-based; conditions: 5 mM
Experimental: Human CD8^+ TILs from various histologies were cultured in the presence or absence (control) of potassium hydroxycitrate (5 mM). In brief, TILs from fresh tumor digests were subjected with 30 ng ml^−1 OKT3 to a rapid expansion protocol (REP) using irradiated peripheral blood mononuclear cells (PBMC) grown cultured in 3,000 IU ml-1 IL-2 in RPMI 1640 and AIM-V, supplemented with 5% in-house human serum 100 μg ml^−1 streptomycin and 100 μg ml^−1 penicillin, 2 mM 1-glutamine, 10 μg ml^−1 gentamicin, for approximately 14 days.
Expression of CD62L was measured by FACS. […] Specifically, FIG. 20 presents representative FACS data for human TIL showing relatively higher expression of the lymphoid homing marker CD62L during TIL expansion for potassium hydroxycitrate cultured TILs as compared to control TILs ([…], 14% increase). FIG. 21 is a graph showing the percentages of cells (% of maximum) expressing CD62L following treatment with negative control or potassium hydroxycitrate. FIGS. 22A and 22B show the quantification of the data shown in FIG. 21 for CD45RO^+ CD62L^+ for two patient samples (Patient A and Patient B).

CD8+ Pmel-1 T cells [3] = assay: Flow cytometry of CD62L/CD44 and IFN-γ production; format: cell-based, mouse; conditions: 5 mM
Experimental: CD8^+ T cells from Pmel-1 mice were stimulated in vitro with 1 μM hgp10025-33 peptide for 5 days and secondary restimulation was done with plate-bound anti-CD3 (1 μg/ml; BD Biosciences, Franklin Lakes, NJ) and soluble anti-CD28 (1 μg/ml; BD Biosciences) and expanded in culture medium containing 60 IU of IL-2. The conditions control/potassium hydroxycitrate (FIG. 7) were activated in the above conditions for a total of 10 days. For measuring T cell effector function, these cells were stimulated on day 10 in the indicated conditions for 5 h with anti-CD3 and -CD28 without IL-2 in the presence of brefeldin A and monesin (BD Biosciences).
(§1) For all flow cytometry experiments, T cells were stained with a fixable live/dead stain (Invitrogen, Waltham, MA) in phosphate buffered saline (PBS) followed by surface antibody staining in FACS buffer (PBS with 0.5% bovine serum albumin (BSA) and 0.1% sodium azide). For intracellular cytokine staining, cells were first stained for surface markers and later stained for intracellular molecules following fixation and permeabilization (BD CYTOFIX/CYTOPERM fixation/permeabilization solution kit). For phospho-staining, BD PHOSFLOW reagents (BD Biosciences) were used and protocols were carried out according to the manufacturer's protocols. After washing, cells were stained with phospho-antibodies purchased from Cell Signaling (Danvers, MA). […] All experiments were conducted on a BD FORTESSA flow cytometer (Becton Dickinson, Downers Grove, IL) and analyzed with FLOWJO software (TreeStar, Ashland, OR).
(§2) CD8+ Pmel-1 T cells were activated with mhgp100 peptide for 5 days in the presence of 5 mM potassium hydroxycitrate followed by secondary stimulation with anti-CD3 (1 μg/ml) and anti-CD28 (1 μg/ml) (FIG. 7A). Cells were analyzed for surface markers or intracellular cytokines on day 10.
Representative flow cytometry analysis and quantification of CD62L vs CD44 positive cells and IFN-γ+ production in T cells cultured in control or 2-hydroxy citrate (potassium hydroxycitrate (5 mM)) are shown in Table B and FIGS. 7A and 7B. […]

[4] = tested on: transferred Ly5.1+ CD8+ T cells in mice bearing B16-mhgp100 tumors; assay: Persistence of transferred T cells in spleen of tumor-bearing mice; format: in vivo
human TIL = assay: TNF and IL-2 expression of human TIL by FACS; format: cell-based; conditions: 2.5 or 5 mM, vs vehicle
Experimental: Human TIL were cultured without stimulation, in vehicle, or in potassium hydroxycitrate (2.5 or 5 mM). The cells were analyzed for the expression of tumor necrosis factor (TNF) and IL-2.

T cells [5] = assay: Acetate rescue: CD62L and IFN-γ by FACS; format: cell-based, mouse; conditions: control 49.4
Description: as §1
T cells were treated with a combination of potassium hydroxycitrate and acetate, potassium hydroxycitrate alone, or negative control. Expression of CD62L was measured by fluorescence-activated cell sorting (FACS).
IFN-γ secretion was also measured by FACS (Table D) and quantified (FIG. 13) following treatment with control, potassium hydroxycitrate alone, or a combination of potassium hydroxycitrate and acetate.

B16-mhgp100 tumors [6] = assay: Anti-tumor efficacy after adoptive transfer of treated Pmel-1 T cells; format: in vivo, mice; conditions: FIGS. 5, 6, 11
T cells [7] = assay: Autophagy by immunoblot, LC3II/LC3I ratio; format: cell-based, mouse; conditions: acetate 5 mM where present, control 0.7
Experimental: Ablation of autophagy was measured by immunoblot following treatment with a combination of potassium hydroxycitrate and 5 mM acetate, potassium hydroxycitrate only, or control (neither potassium hydroxycitrate nor acetate). Beta-actin was used as a control. Quantification of the autophagy flux was represented by ratio of LC3II/LC3I intensities.

T cells [8] = assay: Cytoplasmic citrate and AcCoA quantification in treated T cells; format: cell-based, mouse
Experimental: T cells (n=3) cultured in control or potassium hydroxycitrate conditions were collected and washed in PBS to perform the total and cytoplasmic AcCoA and citrate levels. Samples were homogenized in 1% TRITON X-100 nonionic surfactant, 20 mM Tris-HCl, pH=7.4, 150 mM NaCl on ice for 10 min (Sigma Acetyl-Coenzyme A Assay Kit—MAK039) or citrate buffer (Sigma Citrate Assay Kit—MAK057) (Sigma, St. Louis, MO) as per the directions provided in the kit. For total AcCoA quantification, pelleted cells were extracted using 80% methanol or 5% sulfo-salicylic acid with 50 μM DTT. After cell lysis, samples were deproteinized with a 10 kDa molecular weight cut-off (MWCO) spin filter prior to the assay. AcCoA concentrations were interpolated with AcCoA standards using fluorometric assay (Ex=535, Em=587) or by mass spectrometry. Citrate concentrations were interpolated with citrate standards using colorimetric assay (570 nm). […]
Cytoplasmic citrate and cytoplasmic AcCoA were quantified following treatment of cells with potassium hydroxycitrate or negative control. […]
Cytoplasmic AcCoA was quantified following treatment with a combination of potassium hydroxycitrate and 5 mM acetate, potassium hydroxycitrate only, or control (neither potassium hydroxycitrate nor acetate) (FIG. 14).

[9] = tested on: adoptively transferred CD8+Ly5.1+ T cells; format: in vivo, mice; conditions: challenge with vaccinia rhgp100 1×10^7 PFU; negative control 7.8
CD8+ Pmel-1 T cells [10] = assay: Annexin V/PI FACS of live, apoptotic and necrotic populations; format: cell-based, mouse
Experimental: as §2
Representative FACS data defining the percentages of live (Annexin V−PI−), apoptotic (Annexin V+PI−) and necrotic populations (Annexin V+PI+) cultured in control or potassium hydroxycitrate are provided in Table C and FIG. 8.

T cells [11] = assay: Autophagy flux, GFP-mCherry-LC3b reporter, flow cytometry; format: cell-based, mouse

O=C(O)CC(O)(CC(=O)O)C(=O)O [Citrate, reference compound]
antitumor efficacy in a B16 melanoma model (B16-mhgp100 tumors [1]): but not citrate improves antitumor efficacy

O=C([O-])CC(O)(C(=O)[O-])C(O)C(=O)[O-].[K+].[K+].[K+] (stereo not shown) [Potassium hydroxycitrate, potassium hydroxycitrate]
H3K9Ac deposition at the IFN-γ locus (ChIP-PCR quantification) [2]: reduced H3K9Ac deposition | CD62L expression, representative FACS data (Human CD8+ TILs; about 14 days REP, control 56.2, FIG. 20): 66.6 | expression of the lymphoid homing marker CD62L during TIL expansion (Human CD8+ TILs; vs control): maintained relatively higher expression | increase of CD62L expression vs control TILs (Human CD8+ TILs; FIG. 20): 14% | percentage of cells CD44+ CD62L+ (CD8+ Pmel-1 T cells [3]; day 10, negative control 3.5): 30.7% | percentage of cells IFN-γ+ (CD8+ Pmel-1 T cells [3]; day 10, negative control 59.3): 14.2% | effector differentiation (CD8+ Pmel-1 T cells [3]; vs control): blockade of effector differentiation | in vivo persistence following adoptive transfer ([4]; T cells cultured in potassium hydroxycitrate vs control): enhanced in vivo persistence | percentage Ly5.1+ CD8+ T cells in spleen ([4]; day 7 after transfer, tumor-bearing mice, negative control 9.2): 46.3% | poly-functionality (TNF and IL-2 expression) (human TIL): improves poly-functionality of human TIL | percentage of IFN-γ positive cells (T cells [5]): 18.2% | antitumor efficacy (B16-mhgp100 tumors [6]): improved antitumor efficacy | autophagy flux, ratio of LC3II/LC3I intensities (T cells [7]): 2.1 | cytoplasmic citrate (T cells [8]; T cells treated with potassium hydroxycitrate (ACLY inhibitor) vs negative control, FIG. 2A): citrate accumulation | cytoplasmic AcCoA (T cells [8]; T cells treated with potassium hydroxycitrate vs negative control, FIG. 2B): depletion of cytoplasmic AcCoA | % Ly5.1+ CD8+ T cells, recall response [9]: 25.9% | percentage of cells PI+ Annexin+ (necrotic) (CD8+ Pmel-1 T cells [10]; negative control 9.74): 2.4% | percentage of cells PI− Annexin+ (apoptotic) (CD8+ Pmel-1 T cells [10]; negative control 18.1): 1.6% | percentage of cells PI− Annexin− (live) (CD8+ Pmel-1 T cells [10]; negative control 71.0): 95.2% | cellular apoptosis (CD8+ Pmel-1 T cells [10]; vs control): reduced cellular apoptosis | antitumor efficacy in a B16 melanoma model (B16-mhgp100 tumors [1]): improves antitumor efficacy | percentage of mCherry positive cells which are GFP− (T cells [11]; flow cytometry, loss of GFP = autophagic flux, negative control 12.1): 33.2% | percentage of mCherry positive cells which are GFP+ (T cells [11]; flow cytometry, negative control 83.0): 60.8% | autophagy (T cells [11]; vs negative control): Enhanced autophagy

From patent US12415845B2 (priority 2018, dated 2025)
